Laboratory results taken from patent US7273846B2, “Selective melanin-concentrating hormone type-1 receptor agonists” (priority 2002, dated 2007).
Where two headings read alike, the source gives them in different places. Residues, ends and D or L forms follow the SMILES beside them.

What was measured:
[1] = target: T1, MCH-1R (Homo sapiens, UniProt Q99705); experiment: Aequorin bioluminescence functional assay, 293AEQ17/MCH-1R cells; type: cell-based; parameters: expressed in transfected cells; conditions: for MCH-1R Activation %: human MCH = 100, activation at 10 μM concentration
T1 sequence (Q99705 whole entry): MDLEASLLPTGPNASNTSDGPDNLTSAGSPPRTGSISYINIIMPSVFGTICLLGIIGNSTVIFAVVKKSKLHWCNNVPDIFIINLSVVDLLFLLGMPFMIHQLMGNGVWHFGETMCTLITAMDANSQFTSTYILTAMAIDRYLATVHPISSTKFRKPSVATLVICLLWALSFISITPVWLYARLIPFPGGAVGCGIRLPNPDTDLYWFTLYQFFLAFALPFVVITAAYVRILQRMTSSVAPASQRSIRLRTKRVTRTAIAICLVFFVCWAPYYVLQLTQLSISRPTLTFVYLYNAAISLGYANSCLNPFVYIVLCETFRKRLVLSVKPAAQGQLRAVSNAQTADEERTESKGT
Experimental: (§1) The aequorin bioluminescence assay is a reliable test for identifying G-protein-coupled receptors that couple through the G protein subunit family consisting of Gq and G11. Gq and G11 coupling leads to the activation of phospholipase C, mobilization of intracellular calcium, and activation of protein kinase C.
Stable cell lines expressing either the MCH-1R or the MCH-2R and the aequorin reporter protein were used. The assay was performed using a Luminoskan RT luminometer (Labsystems Inc., Gaithersburg, Md.) controlled by custom software written for a Macintosh PowerPC 6100.
(§2) The cells were harvested, washed once in ECB medium, and resuspended to 500,000 cells/mL. 100 μL of cell suspension (corresponding to 5×10^4 cells) was then injected into the test plate containing the hMCH peptides, and the integrated light emission was recorded over 30 seconds, in 0.5-s units. 20 μL of lysis buffer (0.1% final Triton X-100 concentration) was then injected and the integrated light emission recorded over 10 seconds, in 0.5-s units. The “fractional response” values for each well were calculated by taking the ratio of the integrated response to the initial challenge to the total integrated luminescence including the Triton X-100 lysis response.

[2] = target: MCH-2R (Homo sapiens, UniProt Q969V1); experiment: Aequorin bioluminescence functional assay, 293AEQ17/MCH-2R cells; type: cell-based; parameters: expressed in transfected cells; MCH-2R Activation %: concentration or dose not given beside the values; conditions: for MCH-2R Activation %: human MCH = 100; for EC50: aequorin, 293AEQ17/MCH-2R cells
MCH-2R, sequence (Q969V1 whole entry): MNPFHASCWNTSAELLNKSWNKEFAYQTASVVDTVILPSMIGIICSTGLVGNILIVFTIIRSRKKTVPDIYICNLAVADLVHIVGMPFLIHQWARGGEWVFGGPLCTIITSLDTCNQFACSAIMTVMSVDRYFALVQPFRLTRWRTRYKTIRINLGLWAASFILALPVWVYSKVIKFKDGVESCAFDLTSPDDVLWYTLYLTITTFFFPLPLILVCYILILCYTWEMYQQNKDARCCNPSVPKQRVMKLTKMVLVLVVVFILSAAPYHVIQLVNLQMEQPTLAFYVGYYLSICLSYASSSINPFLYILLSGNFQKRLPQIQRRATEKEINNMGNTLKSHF
Description: as §1
Stable cell lines expressing either the MCH-1R or the MCH-2R and the aequorin reporter protein were used.
as §2

[3] = target: T1, MCH-1R
Experimental: For transient expression, COS-7 cells were cultured in Dulbecco's modified Eagle medium (Gibco BRL, Rockville, Md.) with 10% heat inactivated fetal calf serum.
A suspension of 7×10^6 COS-7 cells were transfected with 20 μg of pCI-neo/MCH-2R plasmid by electroporation and cells were harvested after 60-72 hours. Membranes were prepared from transient and stable transfectants by hypotonic lysis, frozen in liquid nitrogen, and stored at −80° C.
Assays were optimized with respect to membrane preparations: for CHO/MCH-1R membranes, 1 μg of membranes per well yielded a>6× specific binding window and for COS or CHO MCH-2R membranes, 8 μg of membrane protein yielded a window of about 3×.
Specific binding is defined as the difference between total binding and non-specific binding conducted in the presence of 500 nM unlabeled hMCH. […] After equilibrating at room temperature for 3 hours, the plates were read in a TopCount (Packard, Meriden, Conn.). IC50 calculations were performed using Prism 3.0 (GraphPad. Software, San Diego, Calif.). The IC50 values were measured in three different experiments.

[4] = aequorin, 293AEQ17/MCH-1R cells, read-out: MCH-1R EC50

Row | SMILES | MCH-1R Activation % [1] | MCH-2R Activation % [2] | Selectivity 2/1 (MCH-2R/MCH-1R EC50 activity ratio) [1] | EC50 [1, 4] | Selectivity 2/1 (MCH-2R/MCH-1R IC50 binding ratio) [3] | agonism at hMCH-1R in words [1] | agonism at hMCH-2R in words [2] | EC50 [2] | fold lower binding affinity for hMCH-1R ([3]; relative to the D-Arg^6 compound) | EC50 [1] | fold more selective as agonist for hMCH-1R than hMCH-2R [1] | fold lower agonist activity at hMCH-1R ([1]; relative to Ac-hMCH(6-16)-NH2)
1 | CSCC[C@@H]1NC(=O)[C@@H](NC(=O)[C@H](CCCNC(=N)N)NC(=O)[C@H](CC(C)C)NC(=O)[C@H](CCSC)NC(=O)[C@H](CC(=O)O)NC(=O)[C@H](Cc2ccccc2)NC(=O)[C@@H](N)CC(=O)O)CSSC[C@@H](C(=O)N[C@@H](Cc2c[nH]c3ccccc23)C(=O)N[C@@H](CCC(N)=O)C(=O)N[C@H](C(=O)O)C(C)C)NC(=O)[C@@H]2CCCN2C(=O)[C@H](CCCNC(=N)N)NC(=O)[C@H](Cc2ccc(O)cc2)NC(=O)[C@H](C(C)C)NC(=O)[C@H](CCCNC(=N)N)NC(=O)CNC(=O)[C@H](CC(C)C)NC1=O [SEQ. ID. NO. 1, human MCH, reference compound] | 100% | 100% |  |  |  |  |  |  |  |  |  | 
2 | CSCC[C@@H]1NC(=O)[C@@H](NC(=O)[C@H](CCCNC(=N)N)NC(C)=O)CSSC[C@@H](C(N)=O)NC(=O)[C@@H]2CCCN2C(=O)[C@H](CCCNC(=N)N)NC(=O)[C@H](Cc2ccc(O)cc2)NC(=O)[C@H](C(C)C)NC(=O)[C@H](CCCNC(=N)N)NC(=O)CNC(=O)[C@H](CC(C)C)NC1=O [SEQ. ID. NO. 2, Ac-hMCH(6-16)-NH2, reference compound] | 99% |  |  |  |  |  |  |  |  |  |  | 
3 | CSCC[C@@H]1NC(=O)[C@@H](NC(=O)[C@@H](C)NC(C)=O)CSSC[C@@H](C(N)=O)NC(=O)[C@@H]2CCCN2C(=O)[C@H](CCCNC(=N)N)NC(=O)[C@H](Cc2ccc(O)cc2)NC(=O)[C@H](C(C)C)NC(=O)[C@H](CCCNC(=N)N)NC(=O)CNC(=O)[C@H](CC(C)C)NC1=O [SEQ. ID. NO. 6] | 109% | 51% | 30 | 160 nM | 3500 |  |  |  |  |  |  | 
4 | CSCC[C@@H]1NC(=O)[C@@H](NC(=O)[C@@H](Cc2ccccc2)NC(C)=O)CSSC[C@@H](C(N)=O)NC(=O)[C@@H]2CCCN2C(=O)[C@H](CCCNC(=N)N)NC(=O)[C@H](Cc2ccc(O)cc2)NC(=O)[C@H](C(C)C)NC(=O)[C@H](CCCNC(=N)N)NC(=O)CNC(=O)[C@H](CC(C)C)NC1=O [SEQ. ID. NO. 9] | 117% | 79% | 7 | 66 nM | 1380 |  |  |  |  |  |  | 
5 | CSCC[C@@H]1NC(=O)[C@@H](NC(=O)[C@@H](CCCNC(N)=O)NC(C)=O)CSSC[C@@H](C(N)=O)NC(=O)[C@@H]2CCCN2C(=O)[C@H](CCCNC(=N)N)NC(=O)[C@H](Cc2ccc(O)cc2)NC(=O)[C@H](C(C)C)NC(=O)[C@H](CCCNC(=N)N)NC(=O)CNC(=O)[C@H](CC(C)C)NC1=O [SEQ. ID. NO. 14] | 91% | 68% | 0.3 | 920 nM | 43 | lower than those of the L-Arg^6 compound | lower than those of the L-Arg^6 compound | 310 nM | about 30 fold |  |  | 
6 | CSCC[C@@H]1NC(=O)[C@@H](NC(=O)[C@H](CCCNC(=N)N)NC(C)=O)CSSC[C@@H](C(N)=O)NC(=O)[C@@H]2CCCN2C(=O)[C@H](CCCNC(=N)N)NC(=O)[C@H](Cc2ccc(O)cc2)NC(=O)[C@H](C(C)C)NC(=O)[C@H](CCCNC(=N)N)NC(=O)[C@H](C)NC(=O)[C@H](CC(C)C)NC1=O [SEQ. ID. NO. 16] (HELM PEPTIDE1{[ac].R.C.M.L.A.R.V.Y.R.P.C.[am]}$PEPTIDE1,PEPTIDE1,3:R3-12:R3$$$V2.0) | 121% | 102% | 0.29 | 51 nM | 16 |  |  |  |  |  |  | 
7 | CSCC[C@@H]1NC(=O)[C@@H](NC(=O)[C@H](CCCNC(=N)N)NC(C)=O)CSSC[C@@H](C(N)=O)NC(=O)[C@@H]2CCCN2C(=O)[C@H](CCCNC(=N)N)NC(=O)[C@H](Cc2ccc(O)cc2)NC(=O)[C@H](C(C)C)NC(=O)[C@H](CCCNC(=N)N)NC(=O)[C@H](CC(C)C)NC(=O)[C@H](CC(C)C)NC1=O [SEQ. ID. NO. 17] | 123% | 74% | 1.8 |  | 1900 |  |  |  |  |  |  | 
8 | CSCC[C@@H]1NC(=O)[C@@H](NC(=O)[C@H](CCCNC(=N)N)NC(C)=O)CSSC[C@@H](C(N)=O)NC(=O)[C@@H]2CCCN2C(=O)[C@H](CCCNC(=N)N)NC(=O)[C@H](Cc2ccc(O)cc2)NC(=O)[C@H](C(C)C)NC(=O)[C@H](CCCNC(=N)N)NC(=O)[C@H](Cc2ccc3ccccc3c2)NC(=O)[C@H](CC(C)C)NC1=O [SEQ. ID. NO. 21] | 7% | 105% |  | > 10000 nM | 14 |  |  |  |  |  |  | 
9 | CSCC[C@@H]1NC(=O)[C@@H](NC(=O)[C@H](CCCNC(=N)N)NC(C)=O)CSSC[C@@H](C(N)=O)NC(=O)[C@@H]2CCCN2C(=O)[C@H](CCCNC(=N)N)NC(=O)[C@H](Cc2ccc(O)cc2)NC(=O)[C@H](C(C)C)NC(=O)[C@H](CCCNC(=N)N)NC(=O)[C@H](CCCNC(=N)N)NC(=O)[C@H](CC(C)C)NC1=O [SEQ. ID. NO. 23] (HELM PEPTIDE1{[ac].R.C.M.L.R.R.V.Y.R.P.C.[am]}$PEPTIDE1,PEPTIDE1,3:R3-12:R3$$$V2.0) | 7% | 38% |  | > 10000 nM | 0.7 |  |  |  |  |  |  | 
10 | CSCC[C@@H]1NC(=O)[C@@H](NC(=O)[C@H](CCCNC(=N)N)NC(C)=O)CSSC[C@@H](C(N)=O)NC(=O)[C@@H]2CCCN2C(=O)[C@H](CCCNC(=N)N)NC(=O)[C@H](Cc2ccc(O)cc2)NC(=O)[C@H](C(C)C)NC(=O)[C@H](CCCNC(=N)N)NC(=O)[C@H](CCCNC(N)=O)NC(=O)[C@H](CC(C)C)NC1=O [SEQ. ID. NO. 27] | 91% | 68% | 0.3 | 920 nM | 42 |  |  |  |  |  |  | 
11 | CSCC[C@@H]1NC(=O)[C@@H](NC(=O)[C@H](CCCNC(=N)N)NC(C)=O)CSSC[C@@H](C(N)=O)NC(=O)[C@@H]2CCCN2C(=O)[C@H](CCCNC(=N)N)NC(=O)[C@H](Cc2ccc(O)cc2)NC(=O)[C@H](C(C)C)NC(=O)[C@H](CCCNC(=N)N)NC(=O)[C@H](CCC(=O)O)NC(=O)[C@H](CC(C)C)NC1=O [SEQ. ID. NO. 28] | 21% | 22% |  |  |  | practically inactive | practically inactive |  |  | > 10000 nM |  | 
12 | CCCC[C@@H]1NC(=O)[C@@H](NC(=O)[C@H](N)CCCNC(=N)N)CSSC[C@@H](C(N)=O)NC(=O)[C@@H]2CCCN2C(=O)[C@H](CCCNC(=N)N)NC(=O)[C@H](Cc2ccc(O)cc2)NC(=O)[C@H](C(C)C)NC(=O)[C@H](CCCNC(=N)N)NC(=O)[C@H](CC(N)=O)NC(=O)[C@H](CC(C)C)NC1=O [SEQ. ID. NO. 32] (HELM PEPTIDE1{[dR].C.[Nle].L.N.R.V.Y.R.P.C.[am]}$PEPTIDE1,PEPTIDE1,2:R3-11:R3$$$V2.0) |  |  |  |  |  | potent and selective hMCH-1R agonists |  |  |  |  |  | 
13 | CSCC[C@@H]1NC(=O)[C@@H](NC(=O)[C@@H](CCCNC(=N)N)NC(C)=O)CSSC[C@@H](C(N)=O)NC(=O)[C@@H]2CCCN2C(=O)[C@H](C)NC(=O)[C@H](Cc2ccc(O)cc2)NC(=O)[C@H](C(C)C)NC(=O)[C@H](CCCNC(=N)N)NC(=O)[C@H](CC(N)=O)NC(=O)[C@H](CC(C)C)NC1=O [SEQ. ID. NO. 33] (HELM PEPTIDE1{[ac].[dR].C.M.L.N.R.V.Y.A.P.C.[am]}$PEPTIDE1,PEPTIDE1,3:R3-12:R3$$$V2.0) | 109% | 17% |  | 260 nM |  |  |  | > 10000 nM |  |  | about 50 fold | 5 fold
